pIC50: −log10 of the molar value.
Tests used:
[1] = tested on: B. burgdorferi strain N40; experiment: microbe, parasite or virus in culture; format: cell-based, Borrelia burgdorferi; conditions: Borreliella burgdorferi, N40; bioluminescence; stated after the 72 h results, time not given explicitly; read-out: IC50 (loss of B. burgdorferi vitality)
Method: B. burgdorferi N40 strain carrying a firefly luciferase gene (Bbluc), which is a derivative of the N40D10/E9 clone, was used in this study and is labeled as N40 throughout. N40 was cultured at 33 °C in Barbour-Stoenner-Kelly-II (BSK-II) medium supplemented with 6% rabbit serum (BSKII-RS). Bacterial counts were determined under 400× magnification using a hemocytometer and a dark field microscope.
The luciferase expressing B. burgdorferi N40 strain was grown to a density of ~10^8 spirochetes/mL and divided into two aliquots. One aliquot was incubated at 60 °C for 30 min to kill the spirochetes. […] The culture was mixed with the substrate by shaking in the dark, incubated at 37 °C for 5 min in a Spectramax M2 microplate reader (Molecular Devices, San Jose, CA, USA) and the bioluminescence measured. […]
Nucleosides and nucleoside analogs were prepared as sterile 1 mM stock solutions in distilled water (MSeA, IADO, FSBA, and dEt-ImmA) or in DMSO (PurTA). […] Photon emission due to luciferase activity was measured at three time points, after: (a) 24 h, (b) 72 h, and (c) 7 days of treatments to observe the effect of inhibitors on B. burgdorferi culture. At the end of each time point, bioluminescence was measured as described above. […]

Bgp = Bgp (Borreliella burgdorferi, UniProt Q9F952); experiment: MTAN spectrophotometric activity assay (specific activity, Km); format: biochemical, Borrelia burgdorferi
Bgp, sequence (Q9F952 entry or part of it): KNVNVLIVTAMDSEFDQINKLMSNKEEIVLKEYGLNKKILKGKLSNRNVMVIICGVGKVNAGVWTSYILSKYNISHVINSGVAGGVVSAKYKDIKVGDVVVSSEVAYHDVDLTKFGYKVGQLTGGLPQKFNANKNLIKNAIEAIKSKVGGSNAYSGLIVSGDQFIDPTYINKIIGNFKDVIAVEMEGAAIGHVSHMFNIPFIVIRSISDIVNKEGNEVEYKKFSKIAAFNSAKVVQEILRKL
Method: (§1) Recombinant MTANs were expressed and purified as previously described. Briefly, overnight 10 mL cultures of recombinant E. coli BL21(DE3) pLysS cells containing engineered pET30a expression plasmids for Bgp, MtnN or Pfs were grown at 37 °C with shaking (150 rpm) in LB broth supplemented with 50 µg/mL kanamycin and 0.5% glucose. The culture was diluted 1:50 in fresh medium and incubated at 37 °C with shaking (150 rpm) until the absorbance (600 nm) reached 0.4–0.6. Protein expression was induced with the addition of isopropyl β-D-1-thiogalactopyranoside (IPTG) to a final concentration of 1 mM and continued overnight incubation with shaking at 30 °C. Cells were harvested by centrifugation (10,000× g/15 min), and the pellet was washed once with ice-cold lysis buffer (50 mM sodium phosphate, pH = 8.0, 300 mM NaCl, 10 mM imidazole, 2mM β mercaptoethanol). Harvested cell pellets were resuspended in 10 mL fresh lysis buffer and lysed by sonication on ice using a Misonix Sonicator 300 (power setting 7, pulse 30 s, 1 min cooling with total sonication for 2.5 min). The cell lysates were centrifuged at 10,000× g for 15 min at 4 °C to remove debris, and the lysate was further filtered through a […] syringe filter to obtain a clear extract. Recombinant N-terminal hexahistidine tagged proteins were purified from the lysate using HisPur™ affinity columns (Thermo Scientific) according to the manufacturer’s specifications, and specifically eluted with 250 mM imidazole containing buffer (pH = 7). Eluted materials were analyzed by SDS-PAGE and Coomassie blue staining and found to be >95% homogeneous. Enzyme concentrations were determined using UV scans on a Cary100 spectrophotometer (Agilent) to determine the absorbance at 280 nm and applying extinction coefficients (0.1%) of 0.594 (Bgp), 0.637 (MtnN), and 0.404 (Pfs). Enzyme stocks (1 mg/mL) were prepared in 20% glycerol and stored at −80 °C.
(§2) Enzyme specific activities were determined using previously reported optimal pH conditions (50 mM sodium phosphate, pH = 7, for Bgp, MtnN; 50 mM sodium phosphate-citrate, pH = 5, for Pfs) and a spectrophotometric activity assay that measures the decrease in UV absorbance at 275 nm that occurs when MTA is cleaved to 5-methylthioribose and adenine (ε275 = 1.6 mM^−1cm^−1). The extinction coefficients for cleavage of other nucleosides were experimentally validated and found to be the same for MSeA, FSBA, and IADO (ε275 = 1.6 mM^−1cm^−1). Due to the added UV absorbance imparted by the 5′ purine group found in PurTA, the enzyme reactions were followed spectrophotometrically at 260 nm using the experimentally determined extinction coefficient of ε260 = 5.6 mM^−1cm^−1. Enzyme specific activities for MTA were generally 1–2 U/mg (1 U = µmol MTA hydrolyzed/min). The enzyme specific activities for other nucleosides were determined and reported in U/mg and as the % max specific activity (relative to MTA at 100%).
(§3) Kinetic constants have been previously reported for MTA [18]. As MSeA was also an efficient substrate for the B. burgdorferi nucleosidases, kinetic constants were determined using the activity assay described above, varying the nucleoside concentrations from 1 to 20 µM, and fitting the data on substrate-velocity plots to the Michaelis–Menten equation using GraphPad Prism (version 6):(1) Vo=Vmax[S]/Km+[S]

MtnN = MtnN (Borreliella burgdorferi, UniProt O50860); experiment: as above; format: biochemical, Borrelia burgdorferi
MtnN, sequence (O50860 entry or part of it): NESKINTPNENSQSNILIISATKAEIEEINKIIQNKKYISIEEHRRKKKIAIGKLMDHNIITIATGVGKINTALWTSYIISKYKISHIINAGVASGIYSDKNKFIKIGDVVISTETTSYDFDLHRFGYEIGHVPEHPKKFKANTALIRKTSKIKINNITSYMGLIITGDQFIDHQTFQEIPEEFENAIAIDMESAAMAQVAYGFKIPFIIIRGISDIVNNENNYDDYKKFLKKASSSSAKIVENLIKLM
Method: as §1, §2, §3

[2] = pH 7, 1 U = 1 µmol MTA hydrolyzed per minute

Structure (SMILES): Nc1ncnc2c1ncn2[C@@H]1O[C@H](CI)[C@@H](O)[C@H]1O [IADO, 5′-deoxy-5′-iodoadenosine]
- pIC50 [1]: ~6.00
- Specific Activity (Bgp; [2]): 0.04 U/mg
- % Max Specific Activity (Bgp; relative to MTA as a substrate): 4%
- Specific Activity (MtnN; [2]): 0.03 U/mg
- % Max Specific Activity (MtnN; relative to MTA as a substrate): 3%

— paper PMC7557402, “Evaluation of Nucleoside Analogs as Antimicrobials Targeting Unique Enzymes in Borrelia burgdorferi” (Pathogens, 2020)
